Assay: xn = mol fraction of the nth substance listed
Details: 101 kPa, Liquid; for mass density: Vibrating tube method; for speed of sound: Linear variable-path acoustic interferometer

NC1CCCCC1 [cyclohexylamine] + c1ccccc1
Details | mass density, 308.15 K [kg/m3] | mass density, 313.15 K [kg/m3] | mass density, 318.15 K [kg/m3] | mass density, 323.15 K [kg/m3] | speed of sound, 313.15 K [m/s] | speed of sound, 318.15 K [m/s] | speed of sound, 323.15 K [m/s]
x1 = 0.0621 | 861.67 | 856.39 | 851.07 | 845.7 | 1235.4 | 1212.6 | 1190.1
x1 = 0.0938 | 861.08 | 855.84 | 850.53 | 845.26 | 1238.6 | 1215.7 | 1193.2
x1 = 0.1434 | 860.23 | 855.11 | 849.85 | 844.64 | 1243.5 | 1220.9 | 1198.3
x1 = 0.1546 | 860.04 | 854.94 | 849.69 | 844.5 | 1244.6 | 1221.9 | 1199.4
x1 = 0.2031 | 859.28 | 854.22 | 849.06 | 843.92 | 1249.7 | 1227.1 | 1204.6
x1 = 0.2475 | 858.65 | 853.65 | 848.53 | 843.45 | 1254.5 | 1232 | 1209.5
x1 = 0.2972 | 857.99 | 853.04 | 847.99 | 842.96 | 1260 | 1237.5 | 1215.1
x1 = 0.3472 | 857.38 | 852.51 | 847.44 | 842.52 | 1265.6 | 1243.2 | 1220.9
x1 = 0.3945 | 856.87 | 852.03 | 847.06 | 842.14 | 1270.9 | 1248.6 | 1226.2
x1 = 0.4786 | 856.07 | 851.24 | 846.39 | 841.55 | 1280.4 | 1258.2 | 1236.1
x1 = 0.4948 | 855.9 | 851.15 | 846.28 | 841.45 | 1282.3 | 1260 | 1237.9
x1 = 0.5013 | 855.87 | 851.07 | 846.24 | 841.42 | 1283 | 1260.8 | 1238.7
x1 = 0.5389 | 855.55 | 850.78 | 845.99 | 841.19 | 1287.3 | 1265.3 | 1243.1
x1 = 0.5396 | 855.55 | 850.78 | 845.99 | 841.19 | 1287.4 | 1265.4 | 1243.2
x1 = 0.5419 | 855.53 | 850.75 | 845.99 | 841.19 | 1287.7 | 1265.7 | 1243.5
x1 = 0.5927 | 855.17 | 850.43 | 845.7 | 840.94 | 1293.5 | 1271.5 | 1249.5
x1 = 0.6428 | 854.84 | 850.14 | 845.45 | 840.73 | 1299.4 | 1277.4 | 1255.5
x1 = 0.6927 | 854.58 | 849.92 | 845.29 | 840.66 | 1305.2 | 1283.3 | 1261.5
x1 = 0.7465 | 854.32 | 849.68 | 845.06 | 840.41 | 1311.7 | 1289.9 | 1268.1
x1 = 0.7962 | 854.16 | 849.53 | 844.93 | 840.3 | 1317.8 | 1295.8 | 1274.1
x1 = 0.8474 | 853.99 | 849.39 | 844.84 | 840.24 | 1324.1 | 1302.4 | 1280.6
x1 = 0.897 | 853.9 | 849.32 | 844.74 | 840.16 | 1330.5 | 1308.8 | 1287.1
x1 = 0.9485 | 853.83 | 849.27 | 844.71 | 840.16 | 1337.5 | 1315.9 | 1294.4
x1 = 1 | 853.76 | 849.23 | 844.68 | 840.14 | 1344.5 | 1323.1 | 1301.8

Source: the NIST ThermoML archive (doi:10.1016/j.tca.2012.08.011)
